# According to paper PMC4254624 (Biochemical and biophysical research communications, 2014):
# Like-named read-outs stand apart in the source and are kept apart here.
# How the values were obtained:
# [1] = molecular target: T1, EcSecA intrinsic ATPase (Escherichia coli, UniProt P10408); assay: Intrinsic ATPase activity assay of EcSecA; format: biochemical; conditions: for Km / Vmax: Intrinsic; for Ki: read-out: apparent Ki, intrinsic ATPase
# [2] = molecular target: EcSecA membrane ATPase (Escherichia coli, UniProt P10408); assay: Membrane ATPase activity assay of EcSecA with urea-washed BA13 membrane; format: biochemical
# [3] = molecular target: EcSecA translocation ATPase (Escherichia coli, UniProt P10408); assay: Translocation ATPase activity assay of EcSecA with BA13 membrane and proOmpA; format: biochemical; conditions: for Km / Vmax: Translocation
# [4] = molecular target: BsSecA intrinsic ATPase (Bacillus subtilis, UniProt P28366); assay: Intrinsic ATPase activity assay of BsSecA; format: biochemical
# [5] = molecular target: EcSecA (Escherichia coli, UniProt P10408); assay: SecA ion channel activity in Xenopus oocytes; format: cell-based; conditions: for IC50: read-out: IC50 inhibition of SecA channel activity in oocytes, EcSecA
# [6] = molecular target: BsSecA (Bacillus subtilis, UniProt P28366); assay: SecA ion channel activity in Xenopus oocytes; format: cell-based; conditions: for IC50: read-out: IC50 inhibition of SecA channel activity in oocytes, BsSecA
# [7] = molecular target: PaSecA (Pseudomonas aeruginosa, UniProt Q9LCT3); assay: SecA ion channel activity in Xenopus oocytes; format: cell-based, P. aeruginosa; conditions: for IC50: read-out: IC50 inhibition of SecA channel activity in oocytes, PaSecA
# [8] = molecular target: T1, EcSecA intrinsic ATPase; conditions: cited from earlier work
# [9] = high ATP concentrations (above 1 mM), non-competitive
# [10] = low ATP concentrations (below 0.6 mM), competitive
# PaSecA, sequence (Q9LCT3 whole entry): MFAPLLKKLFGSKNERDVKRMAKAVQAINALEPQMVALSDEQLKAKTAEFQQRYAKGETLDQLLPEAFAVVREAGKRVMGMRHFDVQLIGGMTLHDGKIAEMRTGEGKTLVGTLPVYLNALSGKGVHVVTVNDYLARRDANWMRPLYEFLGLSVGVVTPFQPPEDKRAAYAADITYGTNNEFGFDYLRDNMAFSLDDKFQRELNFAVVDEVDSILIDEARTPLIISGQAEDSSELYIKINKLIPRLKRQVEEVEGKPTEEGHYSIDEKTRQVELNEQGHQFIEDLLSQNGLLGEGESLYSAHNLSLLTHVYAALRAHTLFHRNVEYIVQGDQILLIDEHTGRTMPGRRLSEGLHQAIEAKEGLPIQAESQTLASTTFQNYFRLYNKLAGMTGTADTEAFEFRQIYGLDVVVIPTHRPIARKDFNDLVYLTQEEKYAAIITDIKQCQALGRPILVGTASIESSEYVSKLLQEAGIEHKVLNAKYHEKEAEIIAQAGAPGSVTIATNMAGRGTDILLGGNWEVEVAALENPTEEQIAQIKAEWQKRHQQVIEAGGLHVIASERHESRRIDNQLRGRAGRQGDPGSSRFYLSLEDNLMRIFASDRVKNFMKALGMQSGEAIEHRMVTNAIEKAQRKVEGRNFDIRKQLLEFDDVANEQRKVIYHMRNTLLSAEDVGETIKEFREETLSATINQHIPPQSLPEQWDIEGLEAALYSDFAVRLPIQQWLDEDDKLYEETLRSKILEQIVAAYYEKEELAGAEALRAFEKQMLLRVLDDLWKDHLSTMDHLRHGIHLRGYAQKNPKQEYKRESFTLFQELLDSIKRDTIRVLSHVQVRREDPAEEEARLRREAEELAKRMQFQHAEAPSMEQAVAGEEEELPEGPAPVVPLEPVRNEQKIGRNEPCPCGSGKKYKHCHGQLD
# BsSecA, sequence (P28366 whole entry): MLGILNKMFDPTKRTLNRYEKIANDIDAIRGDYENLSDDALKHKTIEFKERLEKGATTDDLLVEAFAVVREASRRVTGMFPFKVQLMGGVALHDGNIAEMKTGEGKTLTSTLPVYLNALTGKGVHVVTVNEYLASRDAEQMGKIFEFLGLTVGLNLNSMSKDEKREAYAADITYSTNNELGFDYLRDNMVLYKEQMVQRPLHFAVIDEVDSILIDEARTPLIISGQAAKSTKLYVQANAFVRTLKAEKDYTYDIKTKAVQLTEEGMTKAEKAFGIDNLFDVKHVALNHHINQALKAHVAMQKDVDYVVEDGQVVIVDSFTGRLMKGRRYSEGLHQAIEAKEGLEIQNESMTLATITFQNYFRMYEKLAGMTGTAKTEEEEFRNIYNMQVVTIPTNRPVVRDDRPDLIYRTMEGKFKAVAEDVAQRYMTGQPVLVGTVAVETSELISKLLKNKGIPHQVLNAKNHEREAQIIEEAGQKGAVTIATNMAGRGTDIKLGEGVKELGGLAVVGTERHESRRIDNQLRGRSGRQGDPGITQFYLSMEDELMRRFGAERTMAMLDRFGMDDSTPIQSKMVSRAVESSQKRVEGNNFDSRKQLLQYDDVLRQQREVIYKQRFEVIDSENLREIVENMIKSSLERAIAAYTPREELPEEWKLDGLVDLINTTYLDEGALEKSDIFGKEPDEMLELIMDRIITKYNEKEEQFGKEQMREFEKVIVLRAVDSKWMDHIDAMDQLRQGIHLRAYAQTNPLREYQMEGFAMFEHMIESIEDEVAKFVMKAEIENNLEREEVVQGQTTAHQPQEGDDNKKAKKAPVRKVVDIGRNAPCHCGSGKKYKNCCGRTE
# EcSecA translocation ATPase, sequence (P10408 whole entry): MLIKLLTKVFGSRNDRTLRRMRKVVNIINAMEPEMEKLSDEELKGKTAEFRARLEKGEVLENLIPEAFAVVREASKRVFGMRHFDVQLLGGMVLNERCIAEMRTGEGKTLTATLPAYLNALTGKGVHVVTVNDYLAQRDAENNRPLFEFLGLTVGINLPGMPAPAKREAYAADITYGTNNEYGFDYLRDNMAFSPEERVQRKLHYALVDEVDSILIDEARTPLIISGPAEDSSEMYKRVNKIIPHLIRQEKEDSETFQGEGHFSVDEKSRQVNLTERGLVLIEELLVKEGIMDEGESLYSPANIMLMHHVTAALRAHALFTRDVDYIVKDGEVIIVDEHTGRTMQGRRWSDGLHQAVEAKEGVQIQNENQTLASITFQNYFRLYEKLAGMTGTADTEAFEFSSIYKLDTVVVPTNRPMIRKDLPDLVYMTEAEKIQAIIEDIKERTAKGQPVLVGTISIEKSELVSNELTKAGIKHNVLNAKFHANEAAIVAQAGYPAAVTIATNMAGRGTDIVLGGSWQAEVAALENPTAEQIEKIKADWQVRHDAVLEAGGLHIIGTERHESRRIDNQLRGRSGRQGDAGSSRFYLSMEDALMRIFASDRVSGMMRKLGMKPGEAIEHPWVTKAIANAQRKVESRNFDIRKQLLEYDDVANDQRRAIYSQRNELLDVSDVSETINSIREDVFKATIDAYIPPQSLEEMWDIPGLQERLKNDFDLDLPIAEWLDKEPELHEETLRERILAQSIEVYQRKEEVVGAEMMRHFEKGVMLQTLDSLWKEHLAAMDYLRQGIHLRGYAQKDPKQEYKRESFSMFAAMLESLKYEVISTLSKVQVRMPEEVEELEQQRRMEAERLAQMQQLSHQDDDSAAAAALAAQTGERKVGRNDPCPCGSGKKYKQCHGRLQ
# T1 sequence (P10408 whole entry): as above
# EcSecA, sequence (P10408 whole entry): as above
# EcSecA membrane ATPase, sequence (P10408 whole entry): as above
# BsSecA intrinsic ATPase, sequence (P28366 whole entry): as the sequence (P28366 whole entry) above
structure (smiles),measurement,setting,value
"O=C1OC2(c3cc(I)c(O)c(I)c3Oc3c2cc(I)c(O)c3I)c2c(Cl)c(Cl)c(Cl)c(Cl)c21 [RB, Rose Bengal]",Km,"[1]; High [ATP], RB 20 μM",1680 µM
same,Vmax,"[1]; High [ATP], RB 20 μM",6.08 molePi·moleSecA^−1min^−1
same,Km,"[1]; High [ATP], RB 40 μM",1680 µM
same,Vmax,"[1]; High [ATP], RB 40 μM",3.99 molePi·moleSecA^−1min^−1
same,Km,"[1]; Low [ATP], RB 20 μM",250 µM
same,Vmax,"[1]; Low [ATP], RB 20 μM",3.07±0.16 molePi·moleSecA^−1min^−1
same,Km,"[1]; Low [ATP], RB 40 μM",460 µM
same,Vmax,"[1]; Low [ATP], RB 40 μM",3.07±0.16 molePi·moleSecA^−1min^−1
same,mechanism of inhibition of intrinsic ATPase versus ATP,[1]; high ATP concentrations,non-competitive inhibitor
same,mechanism of inhibition of intrinsic ATPase versus ATP,[1]; low ATP concentrations,competitive inhibitor
same,Ki,[1]; [9],57.1 ± 3.37 µM
same,Ki,[1]; [10],22.4 ± 3.33 µM
same,mechanism of inhibition of membrane ATPase,[2],mixed-mechanism
same,Vmax,"[2]; Membrane, RB 2 μM",13.61 molePi·moleSecA^−1min^−1
same,Km,"[2]; Membrane, RB 4 μM",310 µM
same,Vmax,"[2]; Membrane, RB 4 μM",8.18 molePi·moleSecA^−1min^−1
same,Ki,"[2]; read-out: average Ki, membrane ATPase, mixed-mechanism",1.42 ± 0.22 µM
same,Km,[3]; RB 0.75 μM,180 µM
same,Vmax,[3]; RB 0.75 μM,23.42 molePi·moleSecA^−1min^−1
same,Km,[3]; RB 1 μM,180 µM
same,Vmax,[3]; RB 1 μM,15.06 molePi·moleSecA^−1min^−1
same,mechanism of inhibition of translocation ATPase,[3]; broad range of ATP concentrations,only non-competitively
same,Ki,"[3]; read-out: Ki, translocation ATPase, non-competitive, broad range of ATP concentrations",0.43 ± 0.02 µM
same,mechanism of inhibition of intrinsic ATPase,[4],two-site inhibition depending on the concentration of ATP
same,mechanism of inhibition of channel activity,[5]; EcSecA-SecYEG-SecDF•YajC liposomes in oocytes,non-competitive inhibition pattern
same,mechanism of inhibition of liposome channel activity with ATP,[5]; EcSecA-liposomes in oocytes,non-competitive inhibition
same,IC50,[5]; BA13 memb,4.7 ± 0.1 µM
same,IC50,[5]; L+SecYEG +SecDF•C,3.8 ± 0.3 µM
same,IC50,[5]; RE-13 memb +SecYEG-DF•C,4.4 ± 0.1 µM
same,mechanism of inhibition of liposome channel activity with ATP,[6]; BsSecA-liposomes in oocytes,non-competitive inhibition
same,IC50,[6]; BA13 memb,5.8 ± 0.3 µM
same,IC50,[6]; L+SecYEG +SecDF•C,4.5 ± 0.2 µM
same,IC50,[6]; RE-13 memb +SecYEG-DF•C,5.2 ± 0.3 µM
same,mechanism of inhibition of liposome channel activity with ATP,[7]; PaSecA-liposomes in oocytes,non-competitive inhibition
same,IC50,[7]; BA13 memb,5.1 ± 0.2 µM
same,IC50,[7]; L+SecYEG +SecDF•C,2 ± 0.3 µM
same,IC50,[7]; Lipo,0.3 ± 0.2 µM
same,IC50,[7]; RE-13 memb +SecYEG,5.1 ± 0.2 µM
same,IC50,[7]; RE-13 memb +SecYEG-DF•C,5.1 ± 0.1 µM
"O.O=C([O-])c1ccccc1-c1c2cc(I)c(=O)c(I)c-2oc2c(I)c([O-])c(I)cc12.[Na+].[Na+] [EB, Erythrocin B]",mechanism of inhibition of intrinsic ATPase versus ATP,[1]; high ATP concentrations,non-competitively
same,mechanism of inhibition of intrinsic ATPase versus ATP,[1]; low ATP concentrations,competitively
same,Ki,[1]; [9],34.3 ± 8.08 µM
same,Ki,[1]; [10],4.06 ± 0.32 µM
"[N-]=[N+]=[N-].[Na+] [azide, sodium azide]",effect on SecA intrinsic ATPase activity,[8],does not affect
